From patent US8853206B2, “Triazolium salts as PAR1 inhibitors, production thereof, and use as medicaments” (Sanofi, priority 2008, dated 2014)
Counter-ions that a name gives are not always drawn.

Target: T1, PAR1 (Homo sapiens (Human), UniProt P25116)
Assay: PAR1 binding test (radioligand displacement, membrane preparation)
Conditions: human PAR1 expressed in High Five insect cell membranes; radioligand 20 nM; read-out: Inhibition of binding IC50
Protocol: The synthesized substances were examined in a PAR1 binding test. This tested whether the substances can inhibit the binding of a radioactively labeled PAR1 agonist known from the literature at the PAR1 receptor (Ho-Sam Ahn, Mol Pharm, 51:350-356, 1997).
The human PAR1 receptor was expressed transiently in High Five insect cells. From these cells, after 48 hours, a membrane preparation was produced by standard methods, aliquoted into 10 mM Tris-HCl; 0.3 mM EDTA; 1 mM EGTA; 250 mM sucrose pH 7.5, and stored at −80° C.
The substances were preincubated with the membrane at RT for 15 minutes, then the radioligand (ALA-(para-F-Phe)-Arg-ChA-homoArg-(3,4-^3H-Tyr)-NH2; approx. 40 Ci/mMol) was added. The end concentration of the radioligand in the test buffer (50 mM Tris-HCl; 10 mM MgCl2; 1 mM EGTA; 0.1% BSA; 2% DMSO) was 20 nM, that of the membrane 1 mg/ml. After an incubation time of 60 minutes, 25 μL of the mixture were transferred to a 96-well MultiScreenHTS FB microtiter filtration plate (from Millipore), which had been pretreated beforehand with a 0.75% aqueous polyethyleneimine solution for 5 hours at RT. Thereafter, with vacuum extraction, each well was washed four times with 300 μL of buffer (50 mM Tris-HCl; 10 mM MgCl2; 1 mM EGTA). The plate was then dried overnight, 100 μl of scintillator per well were added, and the plate was analyzed after 6 hours in a Wallac MicroBeta (from PerkinElmer) liquid scintillation counter. The nonspecific binding was determined in the presence of 100 μM SCH79797 (PAR-1 antagonist; from Tocris, Cat. No. 1592) and subtracted from all measurements. The 100% value used was a control without inhibitor. The % inhibition values of a substance dilution series were used to calculate the IC50 with the aid of nonlinear regression analysis according to the 4-parameter equation.

T1 sequence (P25116 22-425): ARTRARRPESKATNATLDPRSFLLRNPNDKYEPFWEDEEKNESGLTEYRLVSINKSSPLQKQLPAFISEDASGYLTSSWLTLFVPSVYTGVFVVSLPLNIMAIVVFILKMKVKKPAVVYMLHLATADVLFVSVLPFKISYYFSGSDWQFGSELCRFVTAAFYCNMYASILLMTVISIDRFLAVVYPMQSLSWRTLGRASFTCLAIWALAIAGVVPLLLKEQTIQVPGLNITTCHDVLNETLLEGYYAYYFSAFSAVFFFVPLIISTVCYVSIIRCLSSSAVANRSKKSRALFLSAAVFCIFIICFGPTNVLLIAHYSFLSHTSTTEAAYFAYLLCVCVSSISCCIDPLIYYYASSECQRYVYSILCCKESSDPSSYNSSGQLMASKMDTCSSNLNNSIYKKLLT

| Structure (SMILES) | IC50 |
| --- | --- |
| CCC(CC)Oc1ccc2n(n1)c(N)n[n+]2CC(=O)c1cc(OC)cc(OCC2CCCCC2)c1 [Example 47, 3-Amino-1-[2-(3-cyclohexylmethoxy-5-methoxyphenyl)-2-oxoethyl]-6-(1-ethylpropoxy)-[1,2,4]triazolo[4,3-b]pyridazin-1-ium chloride] | 10000 nM |
| CCC(CC)Oc1ccc2n(n1)c(N)n[n+]2CC(=O)c1cc(Cl)cc(OC)c1 [Example 40, 3-Amino-1-[2-(3-chloro-5-methoxyphenyl)-2-oxoethyl]-6-(1-ethylpropoxy)-[1,2,4]triazolo[4,3-b]pyridazin-1-ium chloride] | 601 nM |
| CCOc1nn2c(N)n[n+](CC(=O)c3cc(OCCCO)c(OC)c(C(C)(C)C)c3)c2cc1CC [Example 82, 3-Amino-1-{2-[3-tert-butyl-5-(3-hydroxypropoxy)-4-methoxyphenyl]-2-oxoethyl}-6-ethoxy-7-ethyl-[1,2,4]triazolo[4,3-b]pyridazin-1-ium chloride] | 8400 nM |
| CCC(CC)Oc1ccc2n(n1)c(N)n[n+]2CC(=O)c1cc(OC)cc(C(C)C)c1 [Example 46, 3-Amino-6-(1-ethylpropoxy)-1-]2-(3-isopropyl-5-methoxyphenyl)-2-oxoethyl]-[1,2,4]triazolo[4,3-b]pyridazin-1-ium chloride] | 114 nM |
| CCC(CC)Oc1ccc2n(n1)c(N)n[n+]2CC(=O)c1cc(OCCOC)cc(C(C)(C)C)c1 [Example 54, 3-Amino-1-{2-[3-tert-butyl-5-(2-methoxyethoxy)phenyl]-2-oxoethyl}-6-(1-ethylpropoxy)-[1,2,4]triazolo[4,3-b]pyridazin-1-ium chloride] | 85 nM |
| CCc1ccc2n(n1)c(N)n[n+]2CC(=O)c1cc(N2CCOCC2)c(OC)c(C(C)(C)C)c1 [Example 60, 3-Amino-1-[2-(3-tert-butyl-4-methoxy-5-morpholin-4-ylphenyl)-2-oxoethyl]-6-ethyl-[1,2,4]triazolo[4,3-b]pyridazin-1-ium trifluoroacetate] | 2100 nM |
| CCOc1nn2c(NC)n[n+](CC(=O)c3cc(N4CCOCC4)c(OC)c(C(C)(C)C)c3)c2c(C)c1C [Example 72, 1-[2-(3-tert-Butyl-4-methoxy-5-morpholin-4-ylphenyl)-2-oxoethyl]-6-ethoxy-7,8-dimethyl-3-methylamino-[1,2,4]triazolo[4,3-b]pyridazin-1-ium trifluoroacetate] | 1700 nM |
| CCC(CC)Oc1ccc2n(n1)c(N)n[n+]2CC(=O)c1cc(OCC2CC2)cc(C(C)(C)C)c1 [Example 35, 3-Amino-1-[2-(3-tert-butyl-5-cyclopropylmethoxyphen-yl)-2-oxoethyl]-6-(1-ethylpropoxy)-[1,2,4]triazolo[4,3-b]pyridazin-1-ium chloride] | 132 nM |
| CCOc1cc(C(=O)C[n+]2nc(N)n3nc(OC(CC)CC)ccc32)cc(C(C)(C)C)c1OCC [Example 29, 3-Amino-1-[2-(3-tert-butyl-4,5-diethoxyphenyl)-2-oxoethyl]-6-(1-ethylpropoxy)-[1,2,4]triazolo[4,3-b]pyridazin-1-ium chloride] | 136 nM |
| CCOCc1cc(C(=O)C[n+]2nc(N)n3nc(OC(CC)CC)ccc32)cc(C(C)(C)C)c1 [Example 27, 3-Amino-1-[2-(3-tert-butyl-5-ethoxymethylphenyl)-2-oxoethyl]-6-(1-ethylpropoxy)-[1,2,4]triazolo[4,3-b]pyridazin-1-ium chloride] | 152 nM |
| CCC(CC)Oc1nn2c(N)n[n+](CC(=O)c3cc(N4CCOCC4)c(OC)c(C(C)(C)C)c3)c2cc1C1CC1 [Example 76, 3-Amino-1-[2-(3-tert-butyl-4-methoxy-5-morpholin-4-ylphenyl)-2-oxoethyl]-7-cyclopropyl-6-(1-ethylpropoxy)-[1,2,4]triazolo[4,3-b]pyridazin-1-ium chloride] | 1400 nM |

Target: T1, PAR1
Assay: Inhibition of PAR1-mediated platelet aggregation induced by TRAP
Format: cell-based
Conditions: TRAP-induced aggregation of washed platelets from healthy volunteer donors, 96-well format
Protocol: PAR1 Determination Method: Inhibition of PAR1-Mediated Platelet Aggregation The pharmacological testing of the substances took place in platelet aggregation induced by TRAP (thrombin receptor-activating peptide) in 96-well format. For this purpose, blood was taken from healthy volunteer donors in 20 ml syringes containing 2 ml of 3.13% sodium citrate solution. After centrifugation at 150×g for 20 minutes, the platelet-rich plasma (PRP) was separated off and mixed with 1 μl of PGE1 solution (500 μg/ml in ethanol)/ml of PRP. Incubation at RT for 5 minutes was followed by centrifugation at 120×g for 15 minutes to remove the leukocytes. The leukocyte-free PRP was transferred in 5 ml portions into 15 ml PP tubes and centrifuged at 360×g for 15 minutes in order to pellet the platelets. The plasma was then decanted off and the platelet sediment from 5 ml of PRP was resuspended in 1 ml of Tyrode's (120 mM NaCl, 2.6 mM KCl, 12 mM NaHCO3, 0.39 mM NaH2PO4×H2O, 10 mM HEPES, 0.35% BSA, 5.5 mM glucose, pH 7.4) and adjusted with Tyrode's to a platelet count of 3×10^5/microliter (4). 13 ml of this cell suspension were then mixed with 866 μL of 10 mM CaCl2 solution, and 120 μL thereof were pipetted into each well of a 96-well plate containing 15 μL of the substance to be tested. After incubation at RT in the dark for 30 minutes, 15 μL of a TRAP solution (70-100 μM) were added as agonist, and kinetics were recorded at 650 nm in a SpectraMax 340 at 37° C. for 20 minutes while shaking. The areas under the curves of negative control (Tyrode's/DMSO) and positive control (15 μl of agonist/DMSO) were calculated and the difference was fixed as the 100% value. The substances to be tested were pipetted as serial dilutions in duplicate determination, the AUC was likewise determined for each substance concentration, and the % inhibition of the AUC compared with the control was calculated. On the basis of the % inhibition, the IC50 was calculated by nonlinear regression analysis according to the 4-parameter equation.

| Structure (SMILES) | IC50 |
| --- | --- |
| CCCCOc1ccc2n(n1)c(N)n[n+]2CC(=O)c1cc(COC)cc(C(C)(C)C)c1 [Example 39, 3-Amino-6-butoxy-1-[2-(3-tert-butyl-5-methoxymethylphenyl)-2-oxoethyl]-[1,2,4]triazolo[4,3-b]pyridazin-1-ium chloride] | 37 nM |
| CCC(CC)Oc1ccc2n(n1)c(N)n[n+]2CC(=O)c1cc(OC)c(OC)c(OCC2CCCCC2)c1 [Example 38, 3-Amino-1-[2-(3-cyclohexylmethoxy-4,5-dimethoxyphenyl)-2-oxoethyl]-6-(1-ethylpropoxy)-[1,2,4]triazolo[4,3-b]pyridazin-1-ium chloride] | 240 nM |
| CCOC(=O)c1cn2c(N)n[n+](CC(=O)c3cc(N4CCOCC4)c(OC)c(C(C)(C)C)c3)c2cc1OCC [Example 8, 3-Amino-1-[2-(3-tert-butyl-4-methoxy-5-morpholin-4-yl-phenyl)-2-oxoethyl]-7-ethoxy-6-ethoxycarbonyl-[1,2,4]triazolo[4,3-a]pyridin-1-ium trifluoroacetate] | 4400 nM |
| CCC(CC)Oc1ccc2n(n1)c(N)n[n+]2CC(=O)c1cc(OC)cc(S(F)(F)(F)(F)F)c1 [Example 26, 3-Amino-6-(1-ethylpropoxy)-1-{2-[3-methoxy-5-(pentafluorosulfanyl)phe-nyl]-2-oxoethyl}-[1,2,4]triazolo[4,3-b]pyridazin-1-ium trifluoroacetate] | 5 nM |
| CCOc1ccc2n(n1)c(N)n[n+]2CC(=O)c1cc(NC(C)=O)cc(S(F)(F)(F)(F)F)c1 [Example 1, 1-{2-[3-Acetylamino-5-(pentafluorosulfanyl)phenyl]-2-oxoethyl}-3-amino-6-ethoxy-[1,2,4]triazolo[4,3-b]pyridazin-1-ium trifluoroacetate] | < 14 nM |
| CCOc1cc(C(=O)C[n+]2nc(N)n3nc(OC(CC)CC)ccc32)cc(C(C)(C)C)c1 [Example 32, 3-Amino-1-[2-(3-tert-butyl-5-ethoxyphenyl)-2-oxoethyl]-6-(1-ethylpropoxy)-[1,2,4]triazolo[4,3-b]pyridazin-1-ium chloride] | 6 nM |
| COc1c(N2CCOCC2)cc(C(=O)C[n+]2nc(N)n3cc(C(F)(F)F)ccc32)cc1C(C)(C)C [Example 4, 3-Amino-1-[2-(3-tert-butyl-4-methoxy-5-morpholin-4-ylphenyl)-2-oxoethyl]-6-trifluoromethyl-[1,2,4]triazolo[4,3-a]pyridin-1-ium trifluoroacetate] | 126 nM |
| CC(C)(C)c1cc(C(=O)C[n+]2nc(N)n3ccccc32)cc(C(C)(C)C)c1O [Example 3, 3-Amino-1-[2-(3,5-di-tert-butyl-4-hydroxyphenyl)-2-oxoethyl]-[1,2,4]triazolo[4,3-a]pyridin-1-ium trifluoroacetate] | 1080 nM |
